Legend:
Septoria tritici = experiment: Preventative control of leaf blotch on wheat (Example 4); format: in vivo; conditions: 500 ppm, sprayed the day before inoculation, wheat seedlings, assessed after 4 weeks; untreated plants 90% infected
Phakopsora pachyrhizi = experiment: Protective control of soy bean rust on soy beans (Example 5); format: in vivo; conditions: 500 ppm, sprayed to run-off 1 day before inoculation, soy bean seedlings, assessed after fourteen days; untreated plants 90% infected
Alternaria solani = conditions: 500 ppm, sprayed the day before inoculation, tomato seedlings, assessed after 5 days; untreated plants 90% infected
Protocol: Preventative Fungicidal Control of Early Blight on Tomatoes (Alternaria solani)
Young seedlings of tomato plants were grown in pots. These plants were sprayed to run-off with an aqueous suspension, containing the concentration of active ingredient or mixture mentioned in the table below. The next day, the treated plants were inoculated with an aqueous suspension of Alternaria solani. Then the trial plants were immediately transferred to a humid chamber. After 5 days at 18 to 20° C. and a relative humidity close to 100%, the extent of fungal attack on the leaves was visually assessed as % diseased leaf area.

## 6-Methyl-5H-Pyrrolo[3″,4″:5,6][1,4]dithiino-[2,3-C]isothiazole-3-carbonitrile-5,7(6H)-dione [Example 1.1]
Septoria tritici
  infection (% diseased leaf area): less than or equal to 3%
Phakopsora pachyrhizi
  infection (% diseased leaf area): less than or equal to 1%
Alternaria solani
  infection (% diseased leaf area): less than or equal to 5%

— patent publication US20150315212A1, “SUBSTITUTED 1,4-DITHIINE DERIVATIVES AND THEIR USE AS FUNGICIDES” (BASF SE, priority 2012, published 2015)
